Consider one substance from patent US20100150938A1, “METHODS AND COMPOSITIONS FOR REDUCING INFLAMMATION AND TREATING INFLAMMATORY DISORDERS” (UNIVERSITY OF MASSACHUSETTS, priority 2008, published 2010).

The subject of this experiment is ASC. The experiment can be described thus: ASC-CFP microglia cell line, ASC clustering. It is filed as cell-based, mouse. To be noted: LPS-primed ASC-CFP microglia, 3 h after stimulation. The source says: Human ASC was fused to CFP using BgIII/BamHI in pEF-BOS-CFP. Subsequently, ASC-CFP was cloned using XhoI and NotI into a modified form of FUGW (FUGW-XN). FUGW-XN was modified by replacing GFP with a novel cut site that created XhoI and NotI compatible ends upon Esp3I digestion.
Lentivirus was produced in 293T cells transfected with the FUGW based expression vector coding for ASC-CFP, lentiviral packaging plasmid containing gag, pol and rev genes (pCMV-dR8.91) and envelope plasmid (VSV-G) using TransIT-LT1 transfection reagent (Minis Bio, MIR 2300/5/6) as previously described^46. One day after transfection, medium was replaced and after one additional day of culture supernatants containing the lentivirus was removed, filtered and used to infect immortalized microglia cells.
For experiments, ASC-CFP microglial cells were seeded in duplicate into confocal dishes, stimulated as indicated. A647-labeled cholera toxin subunit B (1:1000) was added to stain cellular membranes. Cells were subsequently imaged using confocal microscopy (Leica SP2 AOBS). Cells were fixed and 5 random fields were imaged in duplicate for quantification.
First, we stably transduced microglial cell cultures with a fusion protein of ASC and cyan fluorescent protein (CFP). ASC forms large oligomers upon its activation, leading to visible changes in the cytoplasmic fluorescence pattern of ASC-CFP. […]

With Aβ 1-42 peptide, the “formation of fluorescent ASC-CFP clusters” value is on record as “brightly fluorescent clusters of ASC-CFP formed”.
